Results taken from patent US20120309821A1, “Use of epigallocatechin-3-gallate for immune regulation” (NATIONAL DEFENSE MEDICAL CENTER, priority 2011, published 2012).

Columns and labels:
Format in all cases: in vivo, mouse
[1] = tested on: NF-κB p65; assay: IHC of NF-κB p65 in kidney; conditions: 120 mg/kg by gavage daily; week 34; increase seen in disease control
Method: (§1) Female NZB/W F1 mice were purchased from the Animal Center of the National Taiwan University (Taipei, Taiwan, ROC) and, at 12 weeks of age, were divided into two groups, one of which was given normal saline and served as the disease control, while the other was given 120 mg/kg body weight of EGCG (Ryss Lab, Inc., CA, USA) (this dose is a slight modification of those used in previous in vivo studies) by gavage daily till sacrificed at 34-weeks-old. 8-Week-old NZB/W F1 female mice (prior to onset of autoantibody production) were used as normal controls. Urine samples were collected in metabolic cages every 2 weeks and urine protein levels were measured, and serum samples were used to measure serum levels of blood urea nitrogen (BUN) and creatinine (Cr) as described previously (Ka, S. M. et al. Decoy receptor 3 ameliorates an autoimmune crescentic glomerulonephritis model in mice. J Am Soc Nephrol 18:2473-2485; 2007). All animal experiments were performed upon the ethical approval of the Institutional Animal Care and Use Committee of the National Defense Medical Center, Taiwan and according to the ethical rules in the NIH Guide for the Care and Use of Laboratory Animals.

[2] = tested on: NF-κB p65; assay: Renal nuclear NF-κB p65 activation ELISA (TransAM); conditions: 120 mg/kg by gavage daily; week 34; increase seen in disease control
Method: as §1, with “All animal experiments were performed upon the ethical approval of the Institutional Animal Care and Use Committee of the National Defense Medical Center, Taiwan and according to the ethical rules in the NIH Guide for the Care and Use of Laboratory Animals.” left out
Nuclear protein from renal cortex was extracted using a Nuclear Extract Kit (Active Motif) according to the manufacturer's instructions and nuclear NF-κB p65 activation quantified using an ELISA-based TransAM NF-κB kit (Active Motif, Tokyo, Japan) according to the manufacturer's protocol by reading the absorbance on an ELISA plate reader (Bio-Tek, VT, USA) at 450 nm with a reference wavelength of 655 nm.

[3] = tested on: CD3+CD69+ cells (activated T cells); assay: T cell activation in splenocytes by flow cytometry; conditions: 120 mg/kg by gavage daily; week 34; increase seen in disease control
Method: as §1, with “Animals. […]” for “Animals.”

[4] = tested on: CD19+CD69+ cells (activated B cells); assay: B cell activation in splenocytes by flow cytometry; conditions: 120 mg/kg by gavage daily; week 34; EGCG-treated vs disease mice
Method: as §1, with “Animals. […]” for “Animals.”

Substance: Epigallocatechin-3-gallate [EGCG]
- NF-κB p65 activity in the kidney (IHC, nuclear location) [1]: markedly inhibited
- nuclear NF-κB p65 levels (ELISA, renal nuclear protein extracts) [2]: significantly inhibited
- percentage of CD3+CD69+ cells (activated T cells) in CD3+ splenocytes [3]: not inhibited
- percentage of CD19+CD69+ cells (activated B cells) in CD19+ splenocytes [4]: no significant difference
